# Reference: paper PMC8448677, “A novel assay based on pre-equilibrium titration curves for the determination of enzyme inhibitor binding kinetics” (European Biophysics Journal, 2021)
# Starred links: 1 amine or outer side, 2 acyl side, 3 side chain; linkers in the order of their positions; H or OH if unused. Positions of bridges follow the written chain, without caps; N, C: chain ends. Non-standard residues stand in square brackets, D forms with d. Residues, ends and D or L forms follow the SMILES beside them. TBMB = c1c(C[*:1])cc(C[*:3])cc1C[*:2]; NMeR = CN[C@@H](CCCNC(=N)N)C(=O)O; hArg = N=C(N)NCCCC[C@H](N)C(=O)O; Aze = O=C(O)[C@@H]1CCN1; Sar = CNCC(=O)O
# Molecular target: T1, Human PKal (plasma kallikrein) (Homo sapiens, UniProt P03952)
# T1 construct: purchased Molecular Innovations HPKA
# T1 sequence (P03952 391-638 limits assumed): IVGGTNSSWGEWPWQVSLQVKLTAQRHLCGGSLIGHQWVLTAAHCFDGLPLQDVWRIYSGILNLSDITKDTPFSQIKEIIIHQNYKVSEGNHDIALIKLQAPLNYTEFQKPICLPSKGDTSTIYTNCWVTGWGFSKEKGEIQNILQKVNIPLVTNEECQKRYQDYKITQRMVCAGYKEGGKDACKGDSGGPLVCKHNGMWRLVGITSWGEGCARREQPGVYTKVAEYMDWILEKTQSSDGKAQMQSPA
# T1 sequence (P03952 20-390 partner limits assumed): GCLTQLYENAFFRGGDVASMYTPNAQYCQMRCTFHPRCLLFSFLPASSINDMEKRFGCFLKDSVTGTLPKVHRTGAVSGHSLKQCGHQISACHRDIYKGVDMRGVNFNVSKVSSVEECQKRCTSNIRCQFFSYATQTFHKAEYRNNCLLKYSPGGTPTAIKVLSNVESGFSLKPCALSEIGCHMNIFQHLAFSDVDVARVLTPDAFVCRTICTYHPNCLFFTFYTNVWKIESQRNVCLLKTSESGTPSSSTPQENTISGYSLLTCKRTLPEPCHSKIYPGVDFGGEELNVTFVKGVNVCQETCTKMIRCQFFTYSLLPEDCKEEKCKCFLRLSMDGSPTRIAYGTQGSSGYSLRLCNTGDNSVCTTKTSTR
# Experiment: Pre-equilibrium titration curve inhibition assay of plasma kallikrein (fluorogenic substrate H-Pro-Phe-Arg-AMC, global fit with Eq. 7)
# Format: biochemical
# Settings: Ki = koff/kon from pre-equilibrium curves, 25 °C, pH 7.5, PKal 1 nM (0.25 nM for 4b), mean ± SD of at least 3 independent measurements, read-out: Ki
# Procedure: The TBMB-based bicyclic peptide inhibitors of PKal used in this study are listed in Table 1, some of which have been described previously (Teufel et al. [2018]). Experiments were performed at 25 °C in 20 mM Tris–HCl, 150 mM NaCl, 1 mM EDTA, 0.1% PEG-6000, 0.1% Triton X-100, pH 7.5. Human PKal (Molecular Innovations, cat. HPKA, typical nominal concentration 1 nM for all peptides except 0.25 nM for peptide 4b) was pre-incubated in 96-well plates with different concentrations of the tested peptide (typically a serial twofold dilution plus a control with no peptide) in a reaction volume of 90 µL. At different timepoints, the fluorogenic substrate H-Pro-Phe-Arg-AMC (Bachem, cat. I-1295.0050, 10 µL, 20 µM final) was added to the relevant wells, and the increase in fluorescence at 480 nm (with excitation at 360 nm) was recorded using a Spectramax M2e plate reader (Molecular Devices). Initial rates of substrate hydrolysis were obtained by linear fit of the raw fluorescence vs. time traces. In addition, fluorescence was recorded ensuring that no more than 10% of the substrate were hydrolyzed, and for periods of time (typically 30–60 s) short enough to obtain linear traces. The data were plotted as the initial rate of substrate hydrolysis vs. peptide concentration for the different times of incubation prior to substrate addition (as shown in Fig. 3) and analyzed using Eq. 7.
# To compute unique values of kon and koff, data sets such as those of Fig. 3 must be analyzed “globally”, i.e., considering all pre-equilibrium inhibition curves as a unique data set, as allowed by modern nonlinear regression analysis software’s. In this study, we used GraphPad Prism ver. 5.02 (GraphPad Software Inc., La Jolla, CA) applying equal weighting (i.e., performing minimization based on absolute distances squared), and we invite the reader to consult the software’s user’s manual for a detailed description of how global fitting of such data sets can be performed (https://cdn.graphpad.com/faq/2/file/Prism_v5_Regression_Guide.pdf). One point to highlight is that the parameters kon, koff and E0 should be “shared”, to employ the terminology used in GraphPad Prism, i.e., that one unique value of these parameters is used to fit the data. […] As discussed previously for the analysis of data obtained under equilibrium, i.e., using Eq. 1 (see Teufel et al. [2018]), the term E0 in Eq. 7 can be treated as a shared but adjustable parameter or, as here, fixed to its known value. The terms v0, kon and koff, by contrast, always need to be treated as adjustable parameters. Finally, the knowledge of the kinetic parameters kon and koff enables calculation of the equilibrium inhibition constant Ki (Ki = koff/kon).
# In the case of H-Pro-Phe-Arg-AMC, however, the Km for human PKal is large (Teufel et al. [2018]) and experiments were performed under conditions where [S] < < Km. Therefore, the values for kon, koff and Ki reported here can be considered as representing actual values.
row,Ki,SMILES
1,1.8 ± 0.2 nM,CC(=O)N[C@H]1CSCc2cc3cc(c2)CSC[C@H](NC(=O)[C@H](Cc2c[nH]c4ccccc24)NC(=O)[C@@H]2CCCN2C(=O)[C@H](CC(N)=O)NC(=O)[C@H](Cc2c[nH]c4ccccc24)NC(=O)[C@H]([C@@H](C)O)NC(=O)[C@H](CC(N)=O)NC1=O)C(=O)N1CCC[C@H]1C(=O)N[C@@H](Cc1c[nH]c2ccccc12)C(=O)N[C@@H](CC(=O)O)C(=O)N[C@@H](C)C(=O)N1CCC[C@H]1C(=O)N[C@@H](CC(C)C)C(=O)N[C@H](C(=O)N[C@@H](C)C(=O)N(C)CC(=O)N(C)CC(=O)N(C)CC(=O)N[C@H](CCCNC(=N)N)C(=O)N[C@H](CCCNC(=N)N)C(N)=O)CSC3 [Peptide 1b] (Ac-CNTWNPWCPWDAPLCA[Sar][Sar][Sar][dR][dR]-NH2; linker 1-8-15 via TBMB)
2,0.1 ± 0.02 nM,CC(=O)N[C@H]1CSCc2cc3cc(c2)CSC[C@H](NC(=O)[C@H](CCCNC(=N)N)NC(=O)[C@H](C)NC(=O)[C@@H]2CCCN2C(=O)[C@H](Cc2c[nH]c4ccccc24)NC(=O)[C@H](CO)NC1=O)C(=O)N[C@@H](CC(C)C)C(=O)N[C@@H](Cc1c[nH]cn1)C(=O)N[C@@H](CCC(N)=O)C(=O)N[C@@H](CC(=O)O)C(=O)N[C@@H](CC(C)C)C(=O)N[C@H](C(N)=O)CSC3 [Peptide 2b] (Ac-CSWPARCLHQDLC-NH2; linker 1-7-13 via TBMB)
3,0.34 ± 0.04 nM,CC(=O)N[C@H]1CSCc2cc3cc(c2)CSC[C@H](NC(=O)[C@H](CCCNC(=N)N)NC(=O)[C@H](Cc2ccc(O)cc2)NC(=O)[C@@H]2CCCN2C(=O)[C@H](Cc2ccccc2)NC(=O)[C@H](CO)NC1=O)C(=O)N[C@@H](CC(C)C)C(=O)N[C@@H](Cc1c[nH]cn1)C(=O)N[C@@H](CCC(N)=O)C(=O)N[C@@H](CC(=O)O)C(=O)N[C@@H](CC(C)C)C(=O)N[C@H](C(N)=O)CSC3 [Peptide 2c] (Ac-CSFPYRCLHQDLC-NH2; linker 1-7-13 via TBMB)
4,0.22 ± 0.04 nM,CC(=O)N[C@H]1CSCc2cc3cc(c2)CSC[C@H](NC(=O)[C@H](CCCCNC(=N)N)NC(=O)[C@H](Cc2ccc(O)cc2)NC(=O)[C@@H]2CCN2C(=O)[C@H](Cc2ccccc2)NC(=O)[C@H](CO)NC1=O)C(=O)N[C@@H](C)CN[C@@H](Cc1c[nH]cn1)C(=O)N[C@@H](CCC(N)=O)C(=O)N[C@@H](CC(=O)O)C(=O)N[C@@H](CC(C)C)C(=O)N[C@H](C(N)=O)CSC3 [Peptide 2d]
5,0.36 ± 0.06 nM,CC(=O)N[C@H]1CSCc2cc3cc(c2)CSC[C@H](NC(=O)[C@H](CCCNC(=N)N)NC(=O)[C@H](Cc2ccc(O)cc2)NC(=O)[C@@H]2CCCN2C(=O)[C@H](Cc2ccccc2)NC(=O)[C@H](CO)NC1=O)C(=O)N[C@@H](CC(C)C)C(=O)N[C@@H](Cc1c[nH]cn1)C(=O)N[C@@H](CCC(N)=O)C(=O)N[C@@H](CC(=O)O)C(=O)N[C@@H](CC(C)C)C(=O)N[C@H](C(N)=O)CSC3 [Peptide 5a] (Ac-CSFPYRCLHQDLC-NH2; linker 1-7-13 via TBMB)
6,0.53 ± 0.07 nM,CC(=O)N[C@H]1CSCc2cc3cc(c2)CSC[C@H](NC(=O)[C@H](CCCCNC(=N)N)NC(=O)[C@H](Cc2ccc(O)cc2)NC(=O)[C@@H]2CCCN2C(=O)[C@H](Cc2ccccc2)NC(=O)[C@H](CO)NC1=O)C(=O)N[C@@H](CC(C)C)C(=O)N[C@@H](Cc1c[nH]cn1)C(=O)N[C@@H](CCC(N)=O)C(=O)N[C@@H](CC(=O)O)C(=O)N[C@@H](CC(C)C)C(=O)N[C@H](C(N)=O)CSC3 [Peptide 5b] (Ac-CSFPY[hArg]CLHQDLC-NH2; linker 1-7-13 via TBMB)
7,0.061 ± 0.027 nM,CC(=O)N[C@H]1CSCc2cc3cc(c2)CSC[C@H](NC(=O)[C@H](CCCCNC(=N)N)NC(=O)[C@H](Cc2ccc(O)cc2)NC(=O)[C@@H]2CCN2C(=O)[C@H](Cc2ccccc2)NC(=O)[C@H](CO)NC1=O)C(=O)N[C@@H](CC(C)C)C(=O)N[C@@H](Cc1c[nH]cn1)C(=O)N[C@@H](CCC(N)=O)C(=O)N[C@@H](CC(=O)O)C(=O)N[C@@H](CC(C)C)C(=O)N[C@H](C(N)=O)CSC3 [Peptide 5c] (Ac-CSF[Aze]Y[hArg]CLHQDLC-NH2; linker 1-7-13 via TBMB)
8,0.55 ± 0.06 nM,CC(=O)N[C@H]1CSCc2cc3cc(c2)CSC[C@H](NC(=O)[C@H](CCCNC(=N)N)N(C)C(=O)[C@H](Cc2ccc(O)cc2)NC(=O)[C@@H]2CCN2C(=O)[C@H](Cc2ccccc2)NC(=O)[C@H](CO)NC1=O)C(=O)N[C@@H](CC(C)C)C(=O)N[C@@H](Cc1c[nH]cn1)C(=O)N[C@@H](CCC(N)=O)C(=O)N[C@@H](CC(=O)O)C(=O)N[C@@H](CC(C)C)C(=O)N[C@H](C(N)=O)CSC3 [Peptide 5d] (Ac-CSF[Aze]Y[NMeR]CLHQDLC-NH2; linker 1-7-13 via TBMB)

# Same assay, conditions: Ki, Ki = koff/kon from pre-equilibrium curves, 25 °C, pH 7.5, PKal 1 nM (0.25 nM for 4b), mean ± SD of at least 3 independent measurements
row,SMILES,Ki
1,CC[C@H](C)[C@@H]1NC(=O)[C@H](CC(=O)O)NC(=O)[C@@H]2CCCN2C(=O)[C@H](Cc2ccc(O)cc2)NC(=O)[C@H](Cc2ccc(O)cc2)NC(=O)[C@H](C(C)C)NC(=O)[C@@H]2CSCc3cc(cc(c3)CSC[C@@H](C(=O)N[C@@H](C)C(=O)N(C)CC(=O)N(C)CC(=O)N(C)CC(=O)N[C@H](CCCNC(=N)N)C(=O)N[C@H](CCCNC(=N)N)C(N)=O)NC1=O)CSC[C@H](NC(C)=O)C(=O)N[C@@H](CO)C(=O)N[C@@H](Cc1ccccc1)C(=O)N1CC[C@H]1C(=O)N[C@@H](Cc1ccc(O)cc1)C(=O)N[C@@H](CCCCNC(=N)N)C(=O)N2 [Peptide 4b] (Ac-CSF[Aze]Y[hArg]CVYYPDICA[Sar][Sar][Sar][dR][dR]-NH2; linker 1-7-14 via TBMB),0.14 ± 0.02 nM
